From patent US7097848B2, “Synergistic insecticidal mixtures” (Bayer Cropscience AG, priority 2002, dated 2006)

Key:
Assay type in all cases: in vivo
[1] = system: green peach aphid (Myzus persicae); experiment: Myzus test (cabbage leaf dip); details: activity found; for LC50 after 6 days: Table B (Example B)
Source text: (§1) The expected activity for a given combination of two active compounds can be calculated as follows (cf. Carpenter, C. S., “Mammalian Toxicity of 1-naphthyl-N-methylcarbamate [Sevin Insecticide]”, Agricultural and Food Chemistry, Vol. 9, No. 1, pages 30–39, 1961):
(§2) If • Pa is the proportion of active compound A in the mixture, • Pb is the proportion of active compound B in the mixture, • LC50 (or 95)a is the concentration at which 50% (or 95%) of the animals treated with active compound A are killed and • LC50 (or 95)b is the concentration at which 50% (or 95%) of the animals treated with active compound B are killed,
(§3) If the calculated LC50 (or 95) exceeds the value actually obtained and is higher than the confidence interval, the activity of the combination is superadditive, i.e. a synergistic effect exists.
(§4) To produce a suitable preparation of active compound, 1 part by weight of active compound is mixed with the stated amounts of solvent and emulsifier, and the concentrate is diluted with emulsifier-containing water to the desired concentration.
Cabbage leaves (Brassica oleracea), which are heavily infested by the green peach aphid (Myzus persicae) are treated by being dipped into the preparation of active compound of the desired concentration.
After the desired period of time, the killed in % is determined. 100% means that all aphids have been killed. The determined kill rates are inserted into Carpenter's formula.
After the desired period of time, the killed in % is determined. 100% means that all aphids have been killed; 0% means that none of the aphids have been killed. The determined kill rates are inserted into Carpenter's formula.

[2] = system: caterpillars of the diamondback moths (Plutella xylostella, sensitive strain); experiment: Plutella test, sensitive strain (cabbage leaf dip); details: activity found
Source text: as §1, §2, §3, §4
Cabbage leaves (Brassica oleracea) are treated by being dipped into the preparation of active compound of the desired concentration and are populated with caterpillars of the diamondback moths (Plutella xylostella, sensitive strain) while the leaves are still moist.
(§5) After the desired period of time, the kill in % is determined. 100% means that all caterpillars have been killed; 0% means that none of the caterpillars have been killed. The determined kill rates are inserted in Carpenter's formula.
(§6) To produce a suitable preparation of active compound, 1 part by weight of active compound is mixed with the stated amounts of solvent emulsifier, and the concentrate is diluted with emulsifier-containing water to the desired concentration.

[3] = system: larvae of the mustard beetle (Phaedon cochleariae); experiment: Phaedon larvae test (cabbage leaf dip); details: activity found; for LC50 after 6 days: Table D (Example D)
Source text: as §1, §2, §3, §4
Cabbage leaves (Brassica oleracea) are treated by being dipped into the preparation of active compound of the desired concentration and are populated with larvae of the mustard beetle (Phaedon cochleariae) while the leaves are still moist.
After the desired period of time, the kill in % is determined. 100% means that all beetle larvae have been killed; 0% means that none of the beetle larvae have been killed. The determined kill rates are inserted in Carpenter's formula.
as §6

[4] = system: cotton aphid (Aphis gossypii); experiment: Aphis gossypii test (cotton leaf dip); details: Table O (Example O); activity found
Source text: as §1, §2, §3, §4
Cotton leaves (Gossypium hirsutum), which are heavily infested by the cotton aphid (Aphis gossypii) are treated by being dipped into the preparation of active compound of the desired concentration.
After the desired period of time, the killed in % is determined. […] The determined kill rates are inserted into Carpenter's formula.

[5] = system: Heliothis armigera caterpillars; experiment: Heliothis armigera test (soya bean shoot dip); details: activity found
Source text: as §1, §2, §3, §4
Soya bean shoots (glycine max) are treated by being dipped into the preparation of active compound of the desired concentration and are populated with Heliothis armigera caterpillars while the leaves are still moist.
After the desired period of time, the kill in % is determined. 100% means that all caterpillars have been killed; 0% means that none of the caterpillars have been killed. The determined kill rates are inserted into Carpenter's formula (see preceding page).
After the desired period of time, the kill in % is determined. 100% means that all caterpillars have been killed; 0% means that none of the caterpillars have been killed. The determined kill rates are inserted into Carpenter's formula.

[6] = system: caterpillars of the diamondback moths (Plutella xylostella, resistant strain); experiment: Plutella test, resistant strain (cabbage leaf dip); details: Table M (Example M); activity found
Source text: as §1, §2, §3
To produce a suitable preparation of active compound, 1 part by weight of active compound is mixed with the stated amounts of solvent and emulsifier, and the concentrate is diluted with emulsifier-containing water to the desired concentration. […]
After the desired period of time, the kill in % is determined. […] The determined kill rates are inserted in Carpenter's formula.

[7] = system: caterpillars of the armyworm (Spodoptera frugiperda); experiment: Spodoptera frugiperda test (cabbage leaf dip); details: activity found; for LC95 after 3 days: Table E (Example E)
Source text: as §1, §2, §3, §4
Cabbage leaves (Brassica oleracea) are treated by being dipped into the preparation of active compound of the desired concentration and are populated with caterpillars of the armyworm (Spodoptera frugiperda) while the leaves are still moist.
as §5

CC1(C)[C@H](C(=O)O[C@H](C#N)c2cccc(Oc3ccccc3)c2)[C@@H]1/C=C(\Cl)C(F)(F)F (racemic) [lambda-cyhalothrin]
LC95 after 1 day ([1]; Table P (Example P)): 11.234 ppm
LC95 after 6 days ([2]; Table R (Example R)): 0.09 ppm
LC95 after 6 days ([3]; Table Q (Example Q)): 11.234 ppm
LC95 after 6 days [4]: 10.545 ppm

CC[C@H](C)[C@H]1O[C@]2(C=C[C@@H]1C)C[C@@H]1C[C@@H](C/C=C(\C)[C@@H](O[C@H]3C[C@H](OC)[C@@H](O[C@H]4C[C@H](OC)[C@@H](O)[C@H](C)O4)[C@H](C)O3)[C@@H](C)/C=C/C=C3\CO[C@@H]4[C@H](O)C(C)=C[C@@H](C(=O)O1)[C@]34O)O2 [avermectin]
LC50 after 6 days ([5]; Table F (Example F)): 0.094 ppm
LC95 after 6 days ([3]; Table G (Example G)): 1.431 ppm

CN/C(=N\[N+](=O)[O-])NCc1cnc(Cl)s1 [clothianidin]
LC50 after 6 days ([5]; Table A (Example A)): 0.997 ppm
LC50 after 6 days ([5]; Table F (Example F)): 15.0 ppm
LC50 after 6 days ([5]; Table J (Example J)): 3.527 ppm
LC50 after 6 days [1]: 1.013 ppm
LC95 after 1 day ([1]; Table H (Example H)): 5.988 ppm
LC95 after 1 day ([1]; Table P (Example P)): 1.303 ppm
LC95 after 6 days ([2]; Table C (Example C)): 42.493 ppm
LC95 after 6 days ([2]; Table L (Example L)): 9.045 ppm
LC95 after 6 days ([2]; Table R (Example R)): 28.46 ppm
LC50 after 6 days [6]: 27.271 ppm
LC50 after 6 days [3]: 6.708 ppm
LC95 after 6 days ([3]; Table G (Example G)): 11.234 ppm
LC95 after 6 days ([3]; Table K (Example K)): 17.504 ppm
LC95 after 6 days ([3]; Table Q (Example Q)): 7.690 ppm
LC95 after 3 days [7]: 6.099 ppm
LC50 after 6 days ([7]; Table I (Example I)): 2.450 ppm
LC50 after 6 days ([7]; Table N (Example N)): 0.178 ppm
LC95 after 6 days [4]: 4.954 ppm

CNC(=O)Oc1cc(C)c(SC)c(C)c1 [methiocarb]
LC95 after 1 day ([1]; Table H (Example H)): 75.000 ppm
LC50 after 6 days ([7]; Table I (Example I)): 51.649 ppm

CC1(C)C(C=C(Cl)Cl)C1C(=O)OC(C#N)c1ccc(F)c(Oc2ccccc2)c1 (stereo not drawn) [β-cyfluthrin]
LC50 after 6 days ([5]; Table A (Example A)): 0.159 ppm
LC50 after 6 days [1]: 2.583 ppm
LC95 after 6 days ([2]; Table C (Example C)): 0.699 ppm
LC50 after 6 days [3]: 0.646 ppm
LC95 after 3 days [7]: 1.113 ppm

emamectin benzoate
LC50 after 6 days ([5]; Table J (Example J)): 0.007 ppm
LC95 after 6 days ([2]; Table L (Example L)): 0.0009 ppm
LC50 after 6 days [6]: 0.0012 ppm
LC95 after 6 days ([3]; Table K (Example K)): 0.072 ppm
LC50 after 6 days ([7]; Table N (Example N)): 0.003 ppm
